The assay addresses T1, human FXR alpha ligand binding domain (Homo sapiens, UniProt Q96RI1).
T1 construct: made in house; host or cells: E. coli BL21 (DE3), vector pDEST15
T1 sequence (Q96RI1 187-472 isoform Q96RI1-2): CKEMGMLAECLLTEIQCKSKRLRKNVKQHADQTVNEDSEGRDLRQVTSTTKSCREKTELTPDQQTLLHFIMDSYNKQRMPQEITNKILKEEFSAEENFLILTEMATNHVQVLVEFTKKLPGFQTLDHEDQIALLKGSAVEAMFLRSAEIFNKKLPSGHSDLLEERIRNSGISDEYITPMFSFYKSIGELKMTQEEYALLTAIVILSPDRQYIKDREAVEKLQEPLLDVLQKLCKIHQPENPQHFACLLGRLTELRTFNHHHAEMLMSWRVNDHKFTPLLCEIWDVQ
The assay can be described thus: FRET Activity Assay (ligand mediated cofactor peptide interaction). The class given is biochemical. The note with it: LANCE time-resolved FRET; GST-FXR-LBD with biotinylated SRC-1 peptide (676-700); read-out: agonistic potential EC50. The method, then: Assays FRET Activity Assay Determination of a ligand mediated cofactor peptide interaction to quantify ligand binding to the nuclear receptor FXR was performed as follows: Preparation of human FXR alpha ligand binding domain: The human FXRalpha LBD was expressed in E. coli strain BL21 (DE3) as an N-terminally GST tagged fusion protein. The DNA encoding the FXR ligand binding domain was cloned into vector pDEST15 (Invitrogen). Expression was under control of an IPTG inducible T7 promoter. The amino acid boundaries of the ligand binding domain were amino acids 187-472 of Database entry NM_005123 (RefSeq). Expression and purification of the FXR-LBD: An overnight preculture of a transformed E. coli strain was diluted 1:20 in LB-Ampicillin medium and grown at 30° C. to an optical density of OD600=0.4-0.6. Gene expression was then induced by addition of 0.5 mM IPTG. […] The protein was analysed by SDS-Page.
The method measures the ability of putative ligands to modulate the interaction between the purified bacterial expressed FXR ligand binding domain (LBD) and a synthetic biotinylated peptide based on residues 676-700 of SRC-1 (LCD2, 676-700). […] The ligand binding domain (LBD) of FXR was expressed as fusion protein with GST in BL-21 cells using the vector pDEST15. […] The LANCE signal was detected by a Perkin Elmer VICTOR2VTM Multilabel Counter. […]
On the technique in general: Time-resolved FRET reads energy transfer from a long-lived donor to a nearby acceptor.

The structures appear in SMILES notation.

For orientation: EC50 means the concentration giving half of the maximal effect.

Turning to `CC(C)n1nc(C(=O)O)cc1N1CCC(O)(c2ccc(OCc3c(-c4c(Cl)cccc4Cl)noc3C3CC3)cc2Cl)CC1` [Example 1, 5-(4-(2-Chloro-4-((5-cyclopropyl-3-(2,6-dichlorophenyl)isoxazol-4-yl)methoxy)phenyl)-4-hydroxypiperidin-1-yl)-1-isopropyl-1H-pyrazole-3-carboxylic Acid], the half-maximal effective concentration (EC50) was less than 0.025 µM.

Values taken from patent publication US9938278B2, “FXR (NR1H4) modulating compounds” (Gilead Sciences, Inc., priority 2014, dated 2018).
